Data published in paper PMC6999911, “New 2-Ethylthio-4-methylaminoquinazoline derivatives inhibiting two subunits of cytochrome bc1 in Mycobacterium tuberculosis” (PLoS Pathogens, 2020).
Values after ≈ are worked out from the molar mass of the structure shown. Read-outs that look alike come from different tables or passages of the source.

What was measured:
[1] = test system: Mycobacteroides abscessus subsp. bolletii 1999–0888; assay: MIC, different organisms; assay type: cell-based
[2] = microsomes
[3] = test system: Mycobacterium tuberculosis Erdman; assay: MIC, different organisms; assay type: cell-based
[4] = test system: Corynebacterium diphtheriae; assay: MIC, different organisms; assay type: cell-based
Candida albicans = assay: MIC, different organisms; assay type: cell-based
in vitro = settings: human, microsomes
[5] = test system: Mycobacterium bovis BCG Pasteur; assay: microbe, parasite or virus in culture; assay type: cell-based; settings: Mycobacterium tuberculosis variant bovis BCG
[6] = test system: Mycobacteroides abscessus subsp. massiliense 2005–0484; assay: MIC, different organisms; assay type: cell-based
[7] = test system: THP-1 macrophages infected with M.tb H37Rv; assay: Ex vivo drug susceptibility in infected THP-1 macrophages; assay type: cell-based; settings: Mycobacterium tuberculosis; THP-1 macrophages infected with H37Rv, 48h
[8] = test system: Corynebacterium glutamicum ATCC13032; assay: MIC, different organisms; assay type: cell-based
[9] = test system: Mycobacterium tuberculosis MDR 59744; assay: MIC, different organisms; assay type: cell-based
[10] = test system: Mycolicibacterium vaccae ATCC 15483; assay: MIC, different organisms; assay type: cell-based; settings: ATCC15483
[11] = test system: Mycobacterium canettii STB-L; assay: MIC, different organisms; assay type: cell-based; settings: Mycobacterium canetti
[12] = test system: Mycobacterium marinum Strain M; assay: MIC, different organisms; assay type: cell-based
Pseudomonas putida = assay: MIC, different organisms; assay type: cell-based
[13] = test system: Mycobacterium avium ATCC15769; assay: MIC, different organisms; assay type: cell-based
[14] = test system: Mycobacteroides abscessus subsp. abscessus 2005–0524; assay: MIC, different organisms; assay type: cell-based
Escherichia coli PQ37 = assay: MIC, different organisms; assay type: cell-based
[15] = test system: Mycobacterium tuberculosis HN878; assay: MIC, different organisms; assay type: cell-based
Enterococcus faecalis = assay: MIC, different organisms; assay type: cell-based
Micrococcus luteus = assay: MIC, different organisms; assay type: cell-based
Staphylococcus aureus = assay: MIC, different organisms; assay type: cell-based
[16] = test system: Mycobacterium smegmatis mc^2155; assay: MIC, different organisms; assay type: cell-based; settings: Mycolicibacterium smegmatis
[17] = test system: non-replicating, streptomycin-starved strain 18b; assay: Activity against non-replicating strain 18b (model for latent TB); assay type: cell-based, Mycobacterium tuberculosis; settings: streptomycin-starved 18b
Salmonella typhimurium = assay: MIC, different organisms; assay type: cell-based; settings: Salmonella enterica
Pseudomonas aeruginosa = assay: MIC, different organisms; assay type: cell-based
Bacillus subtilis = assay: MIC, different organisms; assay type: cell-based
HepG2 cells = assay type: cell-based, Human; settings: for Selective index TD50/MIC: HepG2 TD50 / H37Rv MIC; for HepG2 TD99: Toxic dose that inhibits 99% of cell growth, 3 days
Method: Human HepG2 cells (ATCC HB-8065, 4000 cells/well) were incubated for 3 days with two-fold serially diluted compounds at 37°C, under an atmosphere of 5% CO2. Cell viability was determined by the addition of resazurin (0.0025% w/v) for 5 h at 37°C and the fluorescence intensity measured as in REMA.

Listeria monocytogenes = assay: MIC, different organisms; assay type: cell-based
M. tb H37Rv ΔcydAB [18] = assay type: cell-based; settings: 8X MIC, 32X MIC, 7 days, d.l. = limit of detection
M. tb H37Rv [19] = assay type: cell-based; settings: 11626252 8.4 μM (100x the MIC50)
M. tb H37Rv [20] = assay type: cell-based; settings: 1X - 32X MIC, 7 days
[21] = test system: cydB and lipU in M. tb H37Rv; assay type: cell-based, Mycobacterium tuberculosis; settings: M. tb H37Rv exposed to 11626252, 4 h
M. tb H37Rv ΔcydAB [22] = assay type: cell-based; settings: ΔcydAB strain of M. tb H37Rv, even after CCCP
H37Rv = assay type: cell-based, Mycobacterium tuberculosis; settings: 2.5X MIC, 24 h, compared to untreated controls
M. tb H37Rv South Africa = assay: Acute model of murine TB; assay type: in vivo, Mycobacterium tuberculosis; settings: Balb/c mice
[23] = Mycobacterium canettii STB-L, read-out: MIC

Row | SMILES | MIC [1] [µg/mL] | Human microsome stability, clearance class [2] | MIC [3] [µg/mL] | MIC [4] [µg/mL] | MIC (Candida albicans) [µg/mL] | microsomal CLint (in vitro) [µL/min/mg] | MIC [5] [µg/mL] | MIC [6] [µg/mL] | MIC [8] [µg/mL] | MIC [10] [µg/mL] | MIC [12] [µg/mL] | MIC (Pseudomonas putida) [µg/mL] | MIC [13] [µg/mL] | MIC [14] [µg/mL] | MIC (Escherichia coli PQ37) [µg/mL] | MIC [15] [µg/mL] | MIC (Enterococcus faecalis) [µg/mL] | MIC (Micrococcus luteus) [µg/mL] | MIC (Staphylococcus aureus) [µg/mL] | MIC [16] [µg/mL] | other results
1 | CNc1nc(SCc2ccccc2)nc2cccc(F)c12 |  |  |  |  |  |  |  |  |  |  |  |  |  |  |  |  |  |  |  |  | melting point: 101 to 104 °C
2 | CCSc1nc(NC)c2cc(C(F)(F)F)ccc2n1 |  |  |  |  |  |  |  |  |  |  |  |  |  |  |  |  |  |  |  |  | melting point: 161 to 163 °C
3 | CCSc1nc(NC)c2ccccc2n1 [Compound 11626141] | ≥ 100 | high | 0.01 (≈ 0.0456 µM) | ≥ 100 | ≥ 100 | 120 | 0.9 (≈ 4.1 µM) | ≥ 100 | 66.8 (≈ 305 µM) | ≥ 100 | 0.1 (≈ 0.456 µM) | ≥ 100 | ≥ 100 | 62.4 (≈ 285 µM) | ≥ 100 | 0.05 (≈ 0.228 µM) | ≥ 100 | ≥ 100 | ≥ 100 | 38.4 (≈ 175 µM) | IC50 [7]: 0.013 µg/mL (≈ 0.0593 µM); MIC ([9]; MDR59744, read-out: MIC): 0.02 µg/mL (≈ 0.0912 µM); MIC [11, 23]: 0.05 µg/mL (≈ 0.228 µM); Activity against non-replicating strain 18b [17]: no activity; MIC (Salmonella typhimurium): ≥ 100 µg/mL; MIC (Pseudomonas aeruginosa): ≥ 100 µg/mL; MIC (Bacillus subtilis): ≥ 100 µg/mL; Selective index TD50/MIC (HepG2 cells): 575; HepG2 TD99 (HepG2 cells): 53 µg/mL; MIC (Listeria monocytogenes): ≥ 100 µg/mL
4 | CCNc1nc(SCC)nc2ccccc12 [Compound 11626142] | ≥ 100 | high | 0.1 (≈ 0.429 µM) | 44.3 (≈ 190 µM) | 44.3 (≈ 190 µM) | 122 | 0.8 (≈ 3.43 µM) | ≥ 100 | 75 (≈ 321 µM) | ≥ 100 | 0.8 (≈ 3.43 µM) | ≥ 100 | 49.1 (≈ 210 µM) | 100 (≈ 429 µM) | ≥ 100 | 0.2 (≈ 0.857 µM) | ≥ 100 | ≥ 100 | ≥ 100 | 75.6 (≈ 324 µM) | IC50 [7]: 0.012 µg/mL (≈ 0.0514 µM); MIC ([9]; MDR59744, read-out: MIC): 0.09 µg/mL (≈ 0.386 µM); MIC [11, 23]: 0.2 µg/mL (≈ 0.857 µM); Activity against non-replicating strain 18b [17]: no activity; MIC (Salmonella typhimurium): ≥ 100 µg/mL; MIC (Pseudomonas aeruginosa): ≥ 100 µg/mL; MIC (Bacillus subtilis): ≥ 100 µg/mL; Selective index TD50/MIC (HepG2 cells): 100; HepG2 TD99 (HepG2 cells): 26 µg/mL; MIC (Listeria monocytogenes): ≥ 100 µg/mL
5 | CCSc1nc(NC)c2cccc(F)c2n1 [Compound 11626252] | ≥ 100 | medium | 0.02 (≈ 0.0843 µM) | ≥ 100 | ≥ 100 | 18.1 | 1.6 (≈ 6.74 µM) | ≥ 100 | 47.2 (≈ 199 µM) | ≥ 100 | 0.007 (≈ 0.0295 µM) | ≥ 100 | ≥ 100 | ≥ 100 | ≥ 100 | 0.03 (≈ 0.126 µM) | ≥ 100 | ≥ 100 | ≥ 100 | 32.3 (≈ 136 µM) | log10 CFU/mL (M. tb H37Rv ΔcydAB [18]): < d.l.; IC50 [7]: 0.011 µg/mL (≈ 0.0464 µM); oxygen consumption rate (OCR) after exposure (M. tb H37Rv [19]): increased; MIC ([9]; MDR59744, read-out: MIC): 0.02 µg/mL (≈ 0.0843 µM); MIC [11, 23]: 0.03 µg/mL (≈ 0.126 µM); static or cidal activity by CFU enumeration (M. tb H37Rv [20]): bacteriostatic; Activity against non-replicating strain 18b [17]: no activity; MIC (Salmonella typhimurium): ≥ 100 µg/mL; MIC (Pseudomonas aeruginosa): ≥ 100 µg/mL; expression of cydB and lipU (qRT-PCR) [21]: Overexpression; MIC (Bacillus subtilis): ≥ 100 µg/mL; Selective index TD50/MIC (HepG2 cells): 1950; HepG2 TD99 (HepG2 cells): > 100 µg/mL; MIC (Listeria monocytogenes): ≥ 100 µg/mL; oxygen consumption rate (OCR) after exposure (M. tb H37Rv ΔcydAB [22]): rapid and sustained decrease; remaining relative ATP level (H37Rv): 19.81±8.125%
6 | CCSc1nc(NC)c2ccc(F)c(F)c2n1 [Compound 11726148] |  | medium |  |  |  | 28.7 |  |  |  |  |  |  |  |  |  |  |  |  |  |  | melting point: 186 to 189 °C; decrease of bacterial burden in the lungs (M. tb H37Rv South Africa; 150 mg/kg gavage daily for 10 days, vs untreated TPGS control, p-value 0.004): 0.51 log10 CFU/organ; Selective index TD50/MIC (HepG2 cells): 780; HepG2 TD99 (HepG2 cells): > 100 µg/mL
7 | NNC(=O)c1ccncc1 [INH, isoniazid, reference compound] |  |  |  |  |  |  |  |  |  |  |  |  |  |  |  |  |  |  |  |  | log10 CFU per lung (M. tb H37Rv South Africa; INH 25mg/kg gavage, 10 days, d.l. = limit of detection): < d.l.
8 | CO[C@H]1/C=C/O[C@@]2(C)Oc3c(C)c(O)c4c(O)c(c(/C=N/N5CCN(C)CC5)c(O)c4c3C2=O)NC(=O)/C(C)=C\C=C\[C@H](C)[C@H](O)[C@@H](C)[C@@H](O)[C@@H](C)[C@H](OC(C)=O)[C@@H]1C [RIF, rifampicin, reference compound] | 24.8 (≈ 30.1 µM) |  | 0.001 (≈ 0.00122 µM) | 0.5 (≈ 0.608 µM) | 2.2 (≈ 2.67 µM) |  | 0.0008 (≈ 0.000972 µM) | 9.5 (≈ 11.5 µM) | 0.004 (≈ 0.00486 µM) | 6.6 (≈ 8.02 µM) | 0.2 (≈ 0.243 µM) | 3 (≈ 3.65 µM) | 27.3 (≈ 33.2 µM) | 18.1 (≈ 22 µM) | 6.5 (≈ 7.9 µM) | 0.0006 (≈ 0.000729 µM) | 3.9 (≈ 4.74 µM) | 0.2 (≈ 0.243 µM) | 1.4 (≈ 1.7 µM) | 0.9 (≈ 1.09 µM) | MIC ([9]; MDR59744): ≥ 10 µg/mL; MIC [11]: 0.001 µg/mL (≈ 0.00122 µM); MIC (Salmonella typhimurium): 0.8 µg/mL (≈ 0.972 µM); MIC (Pseudomonas aeruginosa): 0.2 µg/mL (≈ 0.243 µM); MIC (Bacillus subtilis): 0.3 µg/mL (≈ 0.365 µM); MIC (Listeria monocytogenes): 0.6 µg/mL (≈ 0.729 µM)
